Entries after “also recorded” stand apart in the source; their conditions may differ.
What was measured:
HBV [1] = test: Case study patient: antiviral therapy of chronic HBV infection (HBV DNA, ALT); format: in vivo, human; conditions: patient after clinical breakthrough, IFN 9 MU/TIW 6 months, Hepsera 10 mg/day 14 months
Protocol: HBV DNA levels were measured by using a commercial liquid-hybridization assay (Digene, Maryland, US), with the lower limit of detection of this assay being 5 pg/mL of viral DNA.
Lamuvidine was continued after the development of clinical breakthrough. […] Hepsera™ (Adefovir dipovoxil) 10 mg/day was added to lamivudine monotherapy at 44th month of initial antiviral therapy and 3 months after stopping IFN.
Blood counts and liver-function tests (alanine and aspartate aminotransferases) were done according to routine biochemical procedures (Olympus AU 2700 autoanalyzer, Japan).

HBV [2] = test: Published clinical studies of ADF (Perrillo 2004, Peters 2004, Angus 2003, Yang 2003); conditions: ADF added to the therapy; implied from cited studies
wild type HBV = test: HBV replication in transiently transfected Huh7 cell lines (Real-time PCR), wild type HBV; conditions: supernatant at end of 5th day
HBV [3] = conditions: human, in vivo; cited from earlier work
HBV [4] = test: Example 3: second patient, antiviral therapy of HBV infection (HBV DNA, ALT, AST); format: in vivo, human; conditions: lamivudine (Zeffix) 100 mg/day; before breakthrough
Excerpt: A person is a patient with HBsAg (+) and Anti-HBe (+).

[5] = 0.1 μM antiviral, 3 independent experiments
[6] = 1 μM antiviral, 3 independent experiments

Structure (SMILES) | ALT and HBV replication response when added to ongoing lamivudine (in words) (HBV [1]) | ALT and HBV replication response when added to ongoing lamivudine (in words) (HBV [1]; listed as Hepsera™) | Patients not achieving a significant reduction in HBV DNA levels (HBV [2]) | HBV replication in transiently transfected Huh7 cell lines (Mean log HBV copy number ± standard deviation) (wild type HBV; [5]) [log HBV copy number] | HBV replication in transiently transfected Huh7 cell lines (Mean log HBV copy number ± standard deviation) (wild type HBV; [6]) [log HBV copy number] | HBV replication in transiently transfected Huh7 cell lines (Mean log HBV copy number ± standard deviation) (wild type HBV; 10 μM antiviral, n.d. = not detectable) | Adefovir treated patients revealing the resistance mutation rtN236T (HBV [3]) | HBV DNA levels following lamivudine treatment (HBV [4])
CC(C)(C)C(=O)OCOP(=O)(COCCn1cnc2c(N)ncnc21)OCOC(=O)C(C)(C)C [adefovir dipivoxil] | neither suppressed HBV replication nor decreased serum ALT levels | neither inhibition of HBV replication nor ALT normalization occurred; also recorded: did not lead to inhibition of HBV replication and ALT normalisation |  |  |  |  |  | 
Nc1ncnc2c1ncn2CCOCP(=O)(O)O [Adefovir, 9-(2-phosphonyl-methoxyethyl)-adenine] |  |  | 8-15% | 1.15 ± 1.62 | 0.32 ± 0.58 | no detectable HBV DNA | 1.7-2.5% | 
Nc1ccn([C@@H]2CS[C@H](CO)O2)c(=O)n1 [3TC, β-L-(−)-2′,3′-dideoxy-3′-thiacytidine] |  |  |  | 4.1 ± 0.8 | 2.32 ± 1.62 |  |  | less than 5 pg/mL

— patent publication US7422848B2, “Hepatitis-B viral variants with reduced susceptibility to nucleoside analogs and uses thereof” (priority 2005, dated 2008)
